{
  "source": "patent US6150393A",
  "about": "(priority 1999, dated 2000)",
  "key": {"[1]": {"test_system": "human mutated 5HT2A receptor, AP-3", "experiment": "Receptor-mediated inositol phosphate (IP3) accumulation, AP-3", "format": "cell-based", "protocol": "On day one, 1×10^7 293 cells per 150 mm plate were plated out. On day two, two reaction tubes were prepared (the proportions to follow for each tube are per plate): tube A was prepared by mixing 20 μg DNA (e.g., pCMV vector; pCMV vector AP-1 cDNA, etc.) in 1.2 ml serum free DMEM (Irvine Scientific, Irvine, Calif.); tube B was prepared by mixing 120 μl lipofectamine (Gibco BRL) in 1.2 ml serum free DMEM. Tubes A and B were then admixed by inversions (several times), followed by incubation at room temperature for 30-45 min. The admixture is referred to as the \"transfection mixture\". Plated 293 cells were washed with 1×PBS, followed by addition of 10 ml serum free DMEM. 2.4 ml of the transfection mixture was then added to the cells, followed by incubation for 4 hrs at 37° C./5% CO2. On day 3, cells were trypsinized and counted, followed by plating of 1×10^6 cells/well (poly D-lysine treated 12-well plates). Cells were permitted to adhere to the wells, followed by one wash with 1×PBS. Thereafter, 0.5 μCi ^3 H-inositol in 1 ml inositol-free DMEM was added per well. Protocol B.\nOn day 4, the cells were washed with 0.5 ml PBS and then 0.45 ml of assay medium was added containing inositol-free/serum free media, 10 μM pargyline, 10 mM lithium chloride, or 0.4 ml of assay medium and 50 ul of 10× ketanserin (ket) to a final concentration of 10 μM. The cells were then incubated for 30 minutes at 37° C. Then the cells were washed with 0.5 ml PBS and 200 ul of fresh/ice cold stop solution (1M KOH; 18 mM Na-borate; 3.8 mM EDTA) was added/well. The solution was kept on ice for 5-10 minutes or until the cells were lysed and then neutralized by 200 μl of fresh/ice cold neutralization sol. (7.5% HCL). The lysate was then transferred into 1.5 ml microcentrifuge tubes and 1 ml of chloroform/methanol (1:2) was added/tube. The solution was vortexed for 15 seconds and the upper phase was applied to a Biorad AG1-X8 anion exchange resin (100-200 mesh). The resin was washed with water and 0.9 ml of the upper phase was loaded onto the column. The column was washed with 10 mls of 5 mM myo-inositol and 10 ml of 5 mM Na-borate/60 mM Na-formate. The inositol trisphosphates were eluted into scintillation vials containing 10 ml of scintillation cocktail with 2 ml of 0.1 M formic acid/1 M ammonium formate. The columns were regenerated by washing with 10 ml of 0.1 M formic acid/3M ammonium formate and rinsed twice with dd H2 O and stored at room temperature in water.\nCandidate compound identified in the assays of Examples 9a-9c were then evaluated for inositol phosphate accumulation, following the protocol of Example 5 ([…] expressing human mutated 5HT2A receptor, AP-3), modified as follows: tube A was prepared by mixing 16 μg DNA (e.g., pCMV vector; pCMV vector AP-1 cDNA, etc.) in 1.0 ml serum free DMEM (Irvine Scientific, Irvine, Calif.); tube B was prepared by mixing 60 μl lipofectamine (Gibco BRL) in 1.0 ml serum free DMEM. Tubes A and B were then admixed by inversions (several times), followed by incubation at room temperature for 30 min. The admixture is referred to as the \"transfection mixture\". Plated 293 cells were washed with 10 ml Serum Free DMEM, followed by addition of 11 ml Serum Free DMEM. 2.0 ml of the transfection mixture was then added to the cells, followed by incubation for 5 hrs at 37° C./5% CO2. On day 3, cells were trypsinized and counted, followed by plating of 1×10^6 cells/well (12-well plates). Cells were permitted to adhere to the wells for 8 hrs, followed by one wash with 1×PBS. Thereafter, 0.5 μCi ^3 H-inositol in 1 ml inositol-free DMEM was added per well.\nOn day 4, the cells were washed with 1.5 ml PBS and then 0.9 ml of assay medium was added containing inositol-free/serum free media, 10 μM pargyline, 10 mM lithium chloride, for 5 min in 37° C./5% CO2 followed by 100 μl addition of candidate compound diluted in the same material. The cells were then incubated for 120 minutes at 37° C. […]"}, "[2]": {"experiment": "Bar catalepsy test in rats (extrapyramidal side effect analysis)", "format": "in vivo, rat (male Sprague-Dawley)", "conditions": "same dosing parameters and protocol; n=10 per dose; data not shown"}, "[3]": {"experiment": "DOI inhibition study in rats, oral administration of test compound (oral availability)", "format": "in vivo, rat", "conditions": "in vivo; rat; 50 mg/kg oral vs 10 mg/kg i.p., inferred from DOI test", "protocol": "(§1) FIG. 6 provides a graphic summary of the effects of oral administration of 116082 and 116081 in a DOI inhibition study in rats. Values represent the mean±SEMs (n=6/group). #P<0.05 vs. vehicle/vehicle, *P<0.05 vs. vehicle/DOI, Student t-test.\n(§2) Based upon the in vivo data developed, oral bioavailability of compounds […] was considered. The compounds were administered by oral gavage at a dose of 50 mg/kg, 30 min prior to DOI in rats (see Example 11A, supra). Animals were placed in the locomotor activity cages 10 min after DOI administration and activity was measured for 10 min. Results, presented in FIG. 6, provide total activity counts over the 10 min of exposure to the locomotor activity apparatus."}, "[4]": {"test_system": "5HT2 receptors", "experiment": "DOI inhibition study in rats, oral administration of test compound (oral availability)", "format": "in vivo, rat", "protocol": "as §1, §2"}},
  "data": [
    {"smiles": "Cn1cc(Br)c(-c2cccc(NC(=O)Nc3ccc(Cl)cc3)c2)n1", "note": "[Compound 116081, N-[3-(4-bromo-1-methylpyrazol-3-yl)phenyl][(4-chlorophenyl)amino]carboxamide]", "values": [
      {"measurement": "IP3 % of Control", "setting": "[1]; 10 μM test compound, triplicate, control without test compound", "value": 10, "unit": "%"},
      {"measurement": "profile in in vitro functional assays", "setting": "[1]; in vitro functional assays", "value": "selective 5HT2A inverse agonist properties"},
      {"measurement": "cataleptic response", "setting": "[2]", "value": "did not produce a cataleptic response"},
      {"measurement": "bioavailability", "setting": "[3]", "value": "≥ 20", "unit": "%"},
      {"measurement": "oral efficacy compared with intraperitoneal administration", "setting": "[4]; 50 mg/kg oral vs 10 mg/kg i.p.", "value": "as efficacious as a 10 mg/kg dose of the same compounds administered intraperitoneally"},
      {"measurement": "reversal of DOI-induced motor dysfunction, oral", "setting": "[4]; oral gavage 50 mg/kg, 30 min prior to DOI", "value": "reversed DOI-induced motor dysfunction in rats"},
      {"measurement": "oral activity", "setting": "[4]; rat, DOI test, 50 mg/kg oral", "value": "orally active"}
    ]}
  ]
}
